From PMC11788822, “Uncovering the potent antimicrobial activity of squaramide based anionophores – chloride transport and membrane disruption” (Chemical Science, 2025)
Values joined by “and” are separate entries in the source; they are usually repeats but may differ in a detail not shown here. Identical values can stand only once. Like-named read-outs stand apart in the source and are kept apart here. Marks after values point to notes of the source that are not given here.

What was measured:
[1] = tested on: panel of Gram-positive and -negative pathogens; experiment: Zone of inhibition assay; type: cell-based; settings: 5 μL of 1 mM stock on nutrient agar, 37 °C, 24 h; radius ≤ 2 mm deemed not active
Method: To do this, a zone of inhibition assay was used as a qualitative measure of activity. To do so, 5 μL of a 1 mM stock of the respective compound was pipetted atop nutrient agar which was previously spread with a panel of Gram-positive and -negative pathogens of interest. Following incubation at 37 °C for 24 h, zones of inhibition were measured and recorded for each compound. Zones with a radius ≤ 2 mm were deemed as not active, and thus eliminated from further study.

G. mellonella larvae = experiment: Galleria mellonella in vivo toxicity; settings: larvae dosed at 10× IC50, monitored over 72 h
Method: Next, to assess the medicinal validity of compounds 1, 2, and 4 we investigated the in vivo toxicity of these compounds using the Galleria mellonella model organism. This model has been introduced as an alternative model to study microbial infections as it can be easily and inexpensively obtained and doesn't require specialised lab equipment or impose significant ethical constraints. […] Thus, G. mellonella larvae were dosed with a concentration of each compound at 10× IC50 and monitored for signs of toxicity or death over a 72 hour window.
Bacterial cultures were brought to early stationary phase overnight, in nutrient broth (containing 25/50 µg/mL Ampicillin for MRSA/K. pneumoniae, respectively) at 37 °C. Cultures were diluted to an OD600 = 0.01. Aliquots of Culture (100 µl) were added to 100 µL serially diluted compound (200 – 0.78 µM) in nutrient broth in a 96-well plate (Sarstedt, Germany).
Plates were incubated at 37 °C for 24 h and growth was measured at 600 nm, where growth was measured and represented relative to control.
Galleria mellonella toxicity studies
To ascertain inherent compound toxicity, 10 healthy G. mellonella larvae were selected and weighed ensuring to keep larval weight approx. 0.25 g (+ 0.05 g). This constituted one sample set for experiments. […] Larvae were subsequently monitored for up to […], for signs of toxicity, melanisation and death. […]
From an overnight culture brought to stationary phase (OD600 = ~1.0) was taken samples, brought to an OD600 = 0.2, which were treated with N-Ethoxycarbonylmethyl-6-methoxyquinolium Bromide (MQAE) (10 mM) for 1 h at 37 0C. […] 2 mL of samples were taken & transferred to a fluorescence cuvette, whereupon fluorescence was read (λexc = 350 nm (slit width = 5 nm) λem = 460 nm (slit width = 5 nm)) using a Cary Eclipse Fluorescence Spectrophotometer (Agilent Technologies). Subsequently samples were treated with the Compound of interest for 5 mins whereafter fluorescence was measured as previous, with intensity plotted relative to control, […]

[2] = Lucigenin Cl−/NO3− exchange assay in LUVs; settings: Cl− transport, 0.4 mM POPC/cholesterol 7:3 LUVs, Hill fit at 270 s
Method: Given our objective was to use such transport behaviour as a method to disrupt anion homeostasis in bacteria, we also conducted anion transport assays in Large Unilamellar Liposomes (LUVs) using the well-established Lucigenin-based Cl^−/NO3^− exchange assay.[40] Briefly, LUVs containing the chloride sensitive dye lucigenin in a NaNO3 solution were prepared and a NaCl pulse was added to create a chloride concentration gradient. Upon addition of the putative transporter, the quenching of the fluorescence of lucigenin was monitored over time to assess Cl^− influx.
Lucigenin Cl-/NO3- anion exchange assay
LUV preparation and Lucigenin assays were carried out following procedures outlined by Valkenier and co-workers.8 Large unilamellar liposomes (LUVs) were synthesized using 1-palmitoyl-2-oleoyl-sn-glycero-3-phosphocholine (POPC)(11.2 µmol, soln. in CHCl3) and Cholesterol (4.8 µmol) mixed in a ratio of 7:3. This mixture was brought to dryness under gentle vacuum and subsequently, the mixture was rehydrated in an aqueous Lucigenin solution (1 mL, 0.8mM lucigenin in 225 mM NaNO3) and stirred for 1 h to obtain heterogeneous vesicles. After that, the vesicles underwent 9 freeze-thaw cycles and were extruded through a […] polycarbonate membrane 29 times to obtain monodisperse LUVs. A Sephadex G-100 size-exclusion column was employed to remove any unencapsulated lucigenin. The collected liposomes were diluted to 40 mL with 225 mM NaNO3 to obtain a homogeneous 0.4 mM liposome solution. Lucigenin fluorescence quenching was monitored in a time dependent manner using an Agilent Spectrofluorimeter to access Cl- influx (λ ex = 430 nm, λem = 505 nm).
Cl- transport behaviour was initiated at t=0 s by adding each compound as a solvate in DMSO followed by a 25 mM NaCl pulse (75µL, 1 M NaCl in […] NaNO3) to a 3 mL liposome solution. The data was collected for at least 600 s and then Triton X-100 (5% w/w in water) was added to lyse the liposomes, and normalize to 100% efflux. The recorded data was normalised and the fraction fluorescence intensity at 270 s of each tested concentration of transporters (mol%) was plotted against transporter concentration (mol%). The data obtained was fitted to the Hill equation to obtain the EC50 value at 270 s (the concentration to obtain the half maximum effect) by using Originlab 2024b or Graphpad Prism 10:
y = START + (END ‒ START) ∗ xn/(kn + xn)
Where n is the Hill coefficient, k presents the EC 50 value.

[3] = set-up: method as in PMID 34709282; settings: Cl− transport; Reported by Gale and co-workers; cited from earlier work

SMILES | zone of inhibition, qualitative measure of activity [1] | signs of toxicity or death (G. mellonella larvae) | EC50 (mol%) [2] | EC50 (mol%) [3]
O=c1c(Nc2cc(C(F)(F)F)cc(C(F)(F)F)c2)c(NC23CC4CC(CC(C4)C2)C3)c1=O [Compound 1] | promising bioactivity | no appreciable signs of acute/chronic toxicity | 0.0836 mol% and 0.084 mol% | –
O=c1c(Nc2ccc(Cl)c(Cl)c2)c(NC23CC4CC(CC(C4)C2)C3)c1=O [Compound 2] | promising bioactivity | no appreciable signs of acute/chronic toxicity | 0.0993 mol% | –
O=c1c(Nc2ccc([N+](=O)[O-])cc2)c(NC23CC4CC(CC(C4)C2)C3)c1=O [Compound 4] | promising bioactivity | no appreciable signs of acute/chronic toxicity | – | 0.031 ^a mol%
